According to patent publication US20250205191A1, “R(-)-MDMA COMPOSITIONS AND METHODS OF TREATMENT” (EmpathBio, Inc., priority 2023, published 2025):
pEC50: −log10 of the molar value.

Key:
[1] = molecular target: T1, human 5-HT2C (edited) receptor (Homo sapiens, UniProt P28335); assay: 5-HT2C (edited) agonism, inositol monophosphate accumulation (HTRF), CHO-K1 recombinant cells; type: cell-based; details: 5-HT2C (edited); relative to α-Me-5-HT at its EC100
T1 sequence (P28335 33-458): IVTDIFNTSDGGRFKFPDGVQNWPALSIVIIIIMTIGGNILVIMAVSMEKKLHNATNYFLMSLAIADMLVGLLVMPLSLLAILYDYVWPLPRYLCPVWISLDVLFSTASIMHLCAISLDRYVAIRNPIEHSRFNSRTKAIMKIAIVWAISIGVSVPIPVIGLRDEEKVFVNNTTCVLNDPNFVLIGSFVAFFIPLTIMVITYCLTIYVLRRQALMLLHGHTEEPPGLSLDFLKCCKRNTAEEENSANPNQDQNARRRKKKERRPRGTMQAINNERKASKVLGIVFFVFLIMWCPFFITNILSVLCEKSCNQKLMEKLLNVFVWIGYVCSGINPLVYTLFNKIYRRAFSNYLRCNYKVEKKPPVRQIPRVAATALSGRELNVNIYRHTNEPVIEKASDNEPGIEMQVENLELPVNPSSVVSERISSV

[2] = molecular target: T2, human 5-HT2B receptor (Homo sapiens, UniProt P41595); assay: 5-HT2B agonism, inositol monophosphate accumulation (HTRF), CHO-K1 recombinant cells; type: cell-based; details: 5-HT2B
T2 construct: expressed in transfected cells; host or cells: CHO-K1
T2 sequence (P41595 whole entry): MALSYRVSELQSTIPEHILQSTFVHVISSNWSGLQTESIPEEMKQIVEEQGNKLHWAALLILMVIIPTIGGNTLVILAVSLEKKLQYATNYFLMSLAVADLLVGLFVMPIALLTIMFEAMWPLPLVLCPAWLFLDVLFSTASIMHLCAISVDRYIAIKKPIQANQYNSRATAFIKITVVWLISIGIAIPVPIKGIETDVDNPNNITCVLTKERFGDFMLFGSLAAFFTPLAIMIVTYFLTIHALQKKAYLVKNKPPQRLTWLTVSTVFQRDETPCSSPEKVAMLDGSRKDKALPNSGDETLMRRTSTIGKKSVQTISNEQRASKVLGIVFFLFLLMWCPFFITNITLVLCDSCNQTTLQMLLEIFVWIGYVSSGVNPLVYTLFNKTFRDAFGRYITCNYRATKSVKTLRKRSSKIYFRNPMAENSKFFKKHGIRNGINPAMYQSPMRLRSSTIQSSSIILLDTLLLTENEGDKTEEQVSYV

[3] = test system: healthy volunteers; details: racemic MDMA at 125 mg, comparison in FIG. 11; cited from earlier work
[4] = molecular target: T3, human 5-HT2C (non-edited) receptor (Homo sapiens, UniProt P28335); assay: 5-HT2C (non-edited) agonism, inositol monophosphate accumulation (HTRF), CHO-K1 recombinant cells; type: cell-based; details: 5-HT2C (non-edited); relative to α-Me-5-HT at its EC100
T3 construct: expressed in transfected cells; host or cells: CHO-K1
T3 sequence (P28335 33-458): T1 sequence (P28335 33-458)

[5] = molecular target: T4, human 5-HT2A receptor (Homo sapiens, UniProt P28223); assay: 5-HT2A agonism, inositol monophosphate accumulation (HTRF), CHO-K1 recombinant cells; type: cell-based; details: 5-HT2A
T4 construct: expressed in transfected cells; host or cells: CHO-K1
T4 sequence (P28223 whole entry): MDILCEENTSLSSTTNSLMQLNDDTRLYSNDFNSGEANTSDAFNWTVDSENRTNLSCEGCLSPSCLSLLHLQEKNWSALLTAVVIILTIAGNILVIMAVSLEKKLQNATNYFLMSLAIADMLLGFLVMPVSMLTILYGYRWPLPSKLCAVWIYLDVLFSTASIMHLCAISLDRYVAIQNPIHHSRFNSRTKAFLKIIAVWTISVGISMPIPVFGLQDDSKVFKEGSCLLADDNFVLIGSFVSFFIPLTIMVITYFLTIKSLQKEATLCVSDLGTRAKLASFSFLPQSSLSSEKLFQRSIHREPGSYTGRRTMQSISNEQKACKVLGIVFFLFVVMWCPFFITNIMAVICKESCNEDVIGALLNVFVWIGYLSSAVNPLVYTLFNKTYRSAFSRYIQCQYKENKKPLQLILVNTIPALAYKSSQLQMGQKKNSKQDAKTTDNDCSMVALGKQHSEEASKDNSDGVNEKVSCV

[6] = test system: healthy volunteers; details: published report (Hysek et al., 2014); cited from earlier work
[7] = test system: male C57BL/6J mice; assay: Mouse extinction of fear learning assay; type: in vivo; details: 7.8 mg/kg IP once, vs vehicle
Experimental: Extinction of fear learning in rodents is a useful assay to understand if compounds have the potential to enhance learning processes that may be involved in recovery from SAD and other stress and anxiety related disorders, due to its resemblance to exposure-based therapy in humans. […] Freezing behavior, an indicator of the fear response, was measured in the presence of the CS during the extinction training session (Day 1) and the day after (Day 2, Extinction Testing, in the absence of test article). Locomotor activity was measured during the initial 2-minute habituation period, prior to the presentation of the CS, on Days 1 and 2.

[8] = Phase 1 clinical study, plasma pharmacokinetics; details: for AUC0-t / Cmax / t1/2: mean (SD); for Tmax: median (minimum, maximum)
[9] = Phase 1 clinical study, urine pharmacokinetics (urinalysis); type: in vivo, human
[10] = test system: rat embryonic cortical neurons; assay: In vitro rat cortical neurite outgrowth; type: cell-based; details: 250 nM positive control, vs vehicle
Experimental: The experiment included a 0.1% sterile water vehicle negative control condition and a 250 nM donepezil positive control condition, and the number of neurites per neuron, total neurite length per neuron and branchpoints per neuron from n=12 wells per treatment were compared to the vehicle control condition.

[11] = relative to α-Me-5-HT at its EC100
[12] = plasma analyte after oral 125 mg R(−)-MDMA, Day 9
[13] = plasma analyte after single oral 75 mg R(−)-MDMA, Day 1
[14] = plasma analyte after single oral 125 mg R(−)-MDMA, Day 1
[15] = plasma analyte after single oral 175 mg R(−)-MDMA, Day 1
[16] = plasma analyte after single oral 225 mg R(−)-MDMA, Day 1
[17] = urine analyte after EMP-01 125 mg, Day 9
[18] = urine analyte after single oral 75 mg R(−)-MDMA, Day 1
[19] = urine analyte after single oral 125 mg R(−)-MDMA, Day 1
[20] = urine analyte after single oral 175 mg R(−)-MDMA, Day 1
[21] = urine analyte after single oral 225 mg R(−)-MDMA, Day 1

## CNC(C)Cc1ccc2c(c1)OCO2 (racemic) [Racemic MDMA, 3,4-methylenedioxymethamphetamine, reference compound]
[1]
  Efficacy (% of a-Me-5-HT response): 97.7%
[2]; CHO-K1, IP accumulation
  pEC50: 6.71
[2]; [11]
  Efficacy (% of a-Me-5-HT response): 91.2%
[3]
  11D-ASC response profile: no visual hallucinations and little to no insight
[4]
  Efficacy (% of a-Me-5-HT response): 95.3%
[5]; CHO-K1, IP accumulation
  pEC50: 5.33
[5]; [11]
  Efficacy (% of a-Me-5-HT response): 68.4%
[6]
  reduction of bias to angry faces: 12.5%
[7]; 30 min prior to extinction training
  freezing behavior: significantly reduced freezing behavior on Days 1 and 2
[7]
  locomotor activity: increased locomotor activity on Days 1 and 2

## C[C@@H](N)Cc1ccc2c(c1)OCO2 [R-MDA]
[8]; metabolite after oral R(−)-MDMA
  time of peak of mean plasma concentration: approximately 12 hours postdose
[8]; [12]
  AUC0-t: 291.6730 (112.2988) h · ng/mL
  Cmax: 13.3733 (2.3199) ng/mL
  t1/2: 143.1218 (145.7332) hr
  Tmax: 12.042 (12.00, 30.00) hr
[8]; [13]
  AUC0-t: 183.2765 (40.5712) h · ng/mL
  Cmax: 7.6733 (1.6139) ng/mL
  t1/2: 39.0473 (19.0557) hr
  Tmax: 12.000 (10.00, 12.00) hr
[8]; [14]
  AUC0-t: 307.4702 (66.2889) h · ng/mL
  Cmax: 12.7950 (3.1122) ng/mL
  Tmax: 12.025 (12.00, 30.03) hr
[8]; [15]
  AUC0-t: 272.6761 (57.5614) h · ng/mL
  Cmax: 11.2820 (2.1914) ng/mL
  Tmax: 18.000 (12.00, 18.00) hr
[8]; [16]
  AUC0-t: 413.2388 (193.5541) h · ng/mL
  Tmax: 21.050 (18.00, 30.00) hr
[9]; [17]
  Ae12-24, amount excreted at the 12-24 hour collection interval: 0.9794 (0.8552) mg
  CAe, cumulative amount of drug excreted: 0.9794 (0.8552) mg
  CFe, cumulative fraction of drug excreted: 1.2746 (0.7265) %
  CLr, renal clearance rate: 5.3793 (1.5400) L/h
  Fe12-24, fraction of drug excreted at the 12-24 hour collection interval: 0.7835 (0.6842) %
[9]; [18]
  Ae12-24, amount excreted at the 12-24 hour collection interval: 0.4622 (0.1101) mg
  CAe, cumulative amount of drug excreted: 0.8510 (0.2149) mg
  CFe, cumulative fraction of drug excreted: 1.1347 (0.2865) %
  CLr, renal clearance rate: 4.6787 (0.8471) L/h
  Fe12-24, fraction of drug excreted at the 12-24 hour collection interval: 0.6163 (0.1468) %
[9]; [19]
  Ae12-24, amount excreted at the 12-24 hour collection interval: 0.7850 (0.4299) mg
  CAe, cumulative amount of drug excreted: 1.1628 (0.4509) mg
  CFe, cumulative fraction of drug excreted: 0.9302 (0.3608) %
  CLr, renal clearance rate: 3.7173 (0.9547) L/h
  Fe12-24, fraction of drug excreted at the 12-24 hour collection interval: 0.6280 (0.3440) %
[9]; [20]
  Ae12-24, amount excreted at the 12-24 hour collection interval: 0.7076 (0.4510) mg
  CAe, cumulative amount of drug excreted: 1.4788 (0.8740) mg
  CFe, cumulative fraction of drug excreted: 0.8450 (0.4995) %
  CLr, renal clearance rate: 4.3945 (2.1019) L/h
  Fe12-24, fraction of drug excreted at the 12-24 hour collection interval: 0.4043 (0.2577) %
[9]; [21]
  Ae12-24, amount excreted at the 12-24 hour collection interval: 0.8450 (0.4995) mg
  CAe, cumulative amount of drug excreted: 1.9805 (0.8173) mg
  CFe, cumulative fraction of drug excreted: 0.5432 (0.2708) %
  CLr, renal clearance rate: 5.1337 (2.2871) L/h
  Fe12-24, fraction of drug excreted at the 12-24 hour collection interval: 0.8802 (0.3633) %

## COc1cc2c(cc1OC)C(=O)C(CC1CCN(Cc3ccccc3)CC1)C2 (stereo not shown) [Donepezil, reference compound]
[10]
  branchpoints per neuron: significantly and robustly increased
  number of neurites per neuron: significantly and robustly increased
  total neurite length per neuron: significantly and robustly increased
